Reference: paper PMC11220654, “A Frog Skin‐Derived Peptide Targeting SCD1 Exerts Radioprotective Effects Against Skin Injury by Inhibiting STING‐Mediated Inflammation” (Advanced Science, 2024)

Columns and labels:
Type in all cases: cell-based, human
irradiated skin cells = assay: LDH release and JC-1 staining with H151; details: RIFSP-2 15 µM
From the text: Next, we investigated whether suppression of the SCD1‐MUFA‐STING axis by RIFSP‐2 accounts for its protective effect against radiation injury in skin cells. […] Besides, Sting knockout dramatically limited the clonogenic formation ability after administration of RIFSP‐2 (Figure S4F, Supporting Information).
Figure 5 RIFSP‐2 mitigates radiation injury in a STING‐related manner. A) Cell proliferation and death assays for influence of RIFSP‐2 in primary skin cells from STING‐depleted and wild‐type mice detected by CCK‐8 and LDH analysis. B) LDH analysis of irradiated and nonirradiated skin cells pretreated with 15 µM RIFSP‐2 in combination with H151 or not. […]
A clonogenic survival assay of skin cells was performed as previously reported (1). […] Colonies consisting of 50 or more cells were counted as a clone. The relative clonogenic survival fraction was calculated using ImageJ software as previously reported […]
Cells were seeded in a 96-well plate at a density of 1 X 10^4 cells per well. […] In vitro viability was measured using the Cell Counting Kit-8 (CCK-8) (Dojindo Laboratories, Kumamoto, Japan).
Optical density was measured at 450 nm using a microplate reader (Biotek, Winooski, VT).
Cell death was measured by the level of LDH released into the supernatant using an LDH cytotoxicity assay kit (Beyotime, Nantong, China) according to the manufacturer’s instructions. […]

irradiated HaCaT cells = assay: Autophagy, mRFP-GFP-LC3 infection study and LC3 II Western blotting; details: 15 µM RIFSP-2, Western blotting
From the text: Figure 4 MUFAs facilitate ionizing radiation‐induced STING activation, which is disrupted by RIFSP‐2. A) Bioinformatic analysis of the connection between specific binding proteins of RIFSP‐2 (green nodes) and STING (red nodes) in irradiated skin cells. B) Detection of the phosphorylation of STING in RIFSP‐2‐treated and irradiated HaCaT cells through IP analysis. C) Detection of the phosphorylation of TBK1 in RIFSP‐2‐treated primary skin cells from STING wild type mice and depletion ones through Western blotting analysis. D) Investigation of the interaction between STING and RIFSP‐2 in irradiated HaCaT cells based on the established Avidin‐Biotin‐RIFSP‐2 system. E) Volcano plots of differences between lipid class in irradiated HaCaT cells pretreated with RIFSP‐2 or not. F) Influence of LPC (18:1) and RIFSP‐2 in STING downstream signals in irradiated HaCaT cells through Western blotting analysis. G) Influence of LPC (18:1) and RIFSP‐2 in STING downstream inflammatory factors in irradiated HaCaT and RAW 264.7 cells through ELISA assays. […] J) Alteration of biomarkers for autophagy and pyroptosis in irradiated HaCaT cells pretreated with 15 µM RIFSP‐2 in combination with H151 or MF438, detected by Western blotting. *P < 0.05 and **P < 0.01, compared with the control group. […]

skin cells [1] = assay: BODIPY 493/503 probe staining, neutral lipid droplets; details: pretreatment
Description: (§1) Figure 3 RIFSP‐2 restrained SCD1‐mediated biogenesis of MUFA in irradiated skin cells. A) Schematic showing the proteomic analysis performed to investigate the interactome of RIFSP‐2 in irradiated skin cells, as determined by liquid chromatography with tandem mass spectrometry (LC–MS/MS), based on the Avidin‐Biotin‐RIFSP‐2 system. B) Bradford staining of proteins pulled down with Biotin‐RIFSP‐2 and Venn diagram showing common and specific interactomes detected by LC–MS/MS and representative proteins. C) The enriched functions of RIFSP‐2 interactomes in irradiated skin cells based on Gene Ontology (GO) molecular function analysis. D) Colocalization analysis showing FITC‐RIFSP‐2 (green) and ER‐Tracker (red) in irradiated HaCaT cells. E) Changes in neutral lipid droplet formation in irradiated skin cells treated with RIFSP‐2 detected via BODIPY 493/503 probe staining. F) Verification of the interaction between RIFSP‐2 and SCD1 through immunoprecipitation (IP) analysis. G) Molecular simulation of the interaction between RIFSP‐2 and SCD1. […] M–P) Influence of the SCD1 inhibitor MF438 on the neutral lipid droplet formation, ferroptosis, and apoptosis of irradiated skin cells pretreated with RIFSP‐2, as detected by BODIPY 493/503 probe staining, BODIPY 581/591 C11 probe staining and AV/PI staining. *P < 0.05 and **P < 0.01, compared with the control group. […]

[2] = tested on: STING phosphorylation in irradiated skin cells; assay: STING phosphorylation by IP analysis; details: irradiated skin cells (HaCaT)
From the text: Considering the localization of RIFSP‐2 in ER, we then investigated the potential connection between RIFSP‐2 and STING. First, we adopted a proteomic analysis to investigated the interactomes of STING in HaCaT cells, and identified 136 specific proteins in response to radiation. Then, strong connections between specific interactomes for RIFSP‐2 and STING in irradiated skin cells were established in protein interactive analysis, with confidence score > 0.7 (high confidence) (Figure 4A).
Figure 4 MUFAs facilitate ionizing radiation‐induced STING activation, which is disrupted by RIFSP‐2. A) Bioinformatic analysis of the connection between specific binding proteins of RIFSP‐2 (green nodes) and STING (red nodes) in irradiated skin cells. B) Detection of the phosphorylation of STING in RIFSP‐2‐treated and irradiated HaCaT cells through IP analysis. C) Detection of the phosphorylation of TBK1 in RIFSP‐2‐treated primary skin cells from STING wild type mice and depletion ones through Western blotting analysis. […] J) Alteration of biomarkers for autophagy and pyroptosis in irradiated HaCaT cells pretreated with 15 µM RIFSP‐2 in combination with H151 or MF438, detected by Western blotting. *P < 0.05 and **P < 0.01, compared with the control group. […]
Cells were subjected to indicated treatments. […] The protein level was detected by the indicated antibodies with Western blotting analysis.

skin cells [3] = assay: BODIPY 581/591 C11 probe (ferroptosis) and AV/PI staining
Description: as §1, with “[…],” for “ferroptosis, and apoptosis of irradiated skin cells pretreated with RIFSP‐2,”

Structure (SMILES)	LDH release (irradiated skin cells)	influence of pretreatment on the increase in LC3 II levels induced by RIFSP-2 (irradiated HaCaT cells)	formation of neutral lipid droplets (skin cells [1])	STING phosphorylation [2]	influence of pretreatment on the RIFSP-2 effects on ferroptosis and AV staining (skin cells [3])
CCc1ccc(NC(=O)Nc2c[nH]c3ccccc23)cc1 [H151]	attenuated LDH release	not			
Cc1nnc(-c2ccc(N3CCC(Oc4ccccc4C(F)(F)F)CC3)nn2)s1 [MF‐438]		dramatically limited the increase in LC3 II levels	effectively promoted the formation of neutral lipid droplets	significant reduction in STING phosphorylation	diminished these effects
